Each block holds one compound with its values, some of them ahead of it.
Key:
[1] = rabbit; in the absence of an inhibitor
rPCEC [2] = assay: Cellular accumulation of [14C] erythromycin in rPCEC; type: cell-based, rabbit
rPCEC [3] = assay: Cell proliferation assay; type: cell-based, rabbit; conditions: steroid 500 μM with erythromycin, 12 h, data not shown
P-gp = P-gp (Homo sapiens, UniProt P08183); assay: Bi-directional transport across MDCK-MDR1 cell monolayers; type: in vitro ADME; conditions: MDCK-MDR1, pH 7.4
Chain of P-gp (P08183 whole entry): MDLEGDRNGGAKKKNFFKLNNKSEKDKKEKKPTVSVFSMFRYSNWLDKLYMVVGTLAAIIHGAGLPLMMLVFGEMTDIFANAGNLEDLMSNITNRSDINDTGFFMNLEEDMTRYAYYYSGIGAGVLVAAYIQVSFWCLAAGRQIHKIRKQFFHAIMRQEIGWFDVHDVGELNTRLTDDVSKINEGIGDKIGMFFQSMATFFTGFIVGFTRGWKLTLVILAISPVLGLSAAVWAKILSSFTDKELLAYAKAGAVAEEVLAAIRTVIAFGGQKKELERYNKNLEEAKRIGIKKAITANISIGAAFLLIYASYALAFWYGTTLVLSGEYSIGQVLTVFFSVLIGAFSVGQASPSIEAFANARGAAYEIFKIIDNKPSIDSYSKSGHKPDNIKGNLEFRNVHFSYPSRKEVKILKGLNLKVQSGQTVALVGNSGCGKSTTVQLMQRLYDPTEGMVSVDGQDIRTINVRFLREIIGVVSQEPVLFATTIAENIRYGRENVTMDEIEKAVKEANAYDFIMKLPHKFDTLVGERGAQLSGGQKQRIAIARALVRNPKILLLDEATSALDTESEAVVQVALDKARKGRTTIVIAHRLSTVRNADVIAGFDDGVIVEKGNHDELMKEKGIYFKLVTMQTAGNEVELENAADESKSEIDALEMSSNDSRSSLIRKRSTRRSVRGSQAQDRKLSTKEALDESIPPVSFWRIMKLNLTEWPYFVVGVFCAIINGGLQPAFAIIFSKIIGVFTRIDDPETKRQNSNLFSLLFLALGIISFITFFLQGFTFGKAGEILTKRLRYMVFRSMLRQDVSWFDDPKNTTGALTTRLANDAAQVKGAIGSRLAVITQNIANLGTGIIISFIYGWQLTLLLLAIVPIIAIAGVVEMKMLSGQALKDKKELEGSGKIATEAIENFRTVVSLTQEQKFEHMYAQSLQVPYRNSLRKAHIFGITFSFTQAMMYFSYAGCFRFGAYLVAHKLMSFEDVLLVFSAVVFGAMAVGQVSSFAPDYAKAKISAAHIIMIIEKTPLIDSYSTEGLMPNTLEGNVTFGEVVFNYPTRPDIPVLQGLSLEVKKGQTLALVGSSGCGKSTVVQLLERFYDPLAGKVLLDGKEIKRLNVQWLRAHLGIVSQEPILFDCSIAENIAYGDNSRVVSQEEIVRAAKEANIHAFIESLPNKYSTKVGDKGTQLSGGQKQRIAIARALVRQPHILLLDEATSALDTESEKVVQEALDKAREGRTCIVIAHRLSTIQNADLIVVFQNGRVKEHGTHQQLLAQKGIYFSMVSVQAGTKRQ

MRP2 = MRP2 (Homo sapiens, UniProt Q92887); assay: Bi-directional transport across MDCK-MRP2 cell monolayers; type: in vitro ADME; conditions: pH 7.4
Chain of MRP2 (Q92887 whole entry): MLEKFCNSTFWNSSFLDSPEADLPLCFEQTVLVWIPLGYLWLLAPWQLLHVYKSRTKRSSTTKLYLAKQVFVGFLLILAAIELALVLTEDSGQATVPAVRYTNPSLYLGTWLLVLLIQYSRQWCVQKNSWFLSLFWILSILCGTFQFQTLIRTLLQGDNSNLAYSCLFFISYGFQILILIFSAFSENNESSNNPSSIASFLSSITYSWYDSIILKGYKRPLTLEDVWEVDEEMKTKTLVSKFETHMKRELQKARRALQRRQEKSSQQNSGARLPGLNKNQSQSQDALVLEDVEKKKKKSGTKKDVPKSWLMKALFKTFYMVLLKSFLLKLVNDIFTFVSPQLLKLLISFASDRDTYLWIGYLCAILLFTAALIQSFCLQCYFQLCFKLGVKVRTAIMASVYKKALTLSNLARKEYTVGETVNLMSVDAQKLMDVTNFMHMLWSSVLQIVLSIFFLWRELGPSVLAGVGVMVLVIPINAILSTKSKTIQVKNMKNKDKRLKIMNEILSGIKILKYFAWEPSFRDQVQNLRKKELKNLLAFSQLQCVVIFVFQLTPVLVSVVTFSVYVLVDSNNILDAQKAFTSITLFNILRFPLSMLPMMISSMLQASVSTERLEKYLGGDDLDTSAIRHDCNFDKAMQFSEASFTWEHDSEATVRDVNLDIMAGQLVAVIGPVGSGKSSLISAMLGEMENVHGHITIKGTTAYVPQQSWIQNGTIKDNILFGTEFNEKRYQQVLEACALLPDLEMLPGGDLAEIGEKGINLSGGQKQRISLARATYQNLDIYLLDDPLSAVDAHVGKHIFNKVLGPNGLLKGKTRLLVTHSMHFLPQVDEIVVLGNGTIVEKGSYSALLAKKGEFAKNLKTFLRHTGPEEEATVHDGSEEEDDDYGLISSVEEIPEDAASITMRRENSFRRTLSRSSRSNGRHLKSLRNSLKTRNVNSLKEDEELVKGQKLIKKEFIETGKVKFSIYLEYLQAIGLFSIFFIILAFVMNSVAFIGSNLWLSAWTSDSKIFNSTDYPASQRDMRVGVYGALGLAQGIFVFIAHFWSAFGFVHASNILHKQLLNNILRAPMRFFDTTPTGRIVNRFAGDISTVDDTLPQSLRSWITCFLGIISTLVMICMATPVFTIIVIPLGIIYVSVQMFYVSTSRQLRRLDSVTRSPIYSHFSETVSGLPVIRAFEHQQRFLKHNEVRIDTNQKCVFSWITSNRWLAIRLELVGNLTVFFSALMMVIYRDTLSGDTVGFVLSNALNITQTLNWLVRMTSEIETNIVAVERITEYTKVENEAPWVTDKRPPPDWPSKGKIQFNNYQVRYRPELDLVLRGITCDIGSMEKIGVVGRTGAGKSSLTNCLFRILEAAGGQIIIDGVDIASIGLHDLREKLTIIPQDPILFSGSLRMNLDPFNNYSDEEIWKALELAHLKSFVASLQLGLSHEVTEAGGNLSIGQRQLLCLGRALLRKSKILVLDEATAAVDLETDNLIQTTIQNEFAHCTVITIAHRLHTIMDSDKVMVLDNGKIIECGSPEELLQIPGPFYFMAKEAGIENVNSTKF

Corneal absorption rate constant (ka) of erythromycin [1]: 4.54±0.62×10^−5 min^−1
SMILES: CC[C@H]1OC(=O)[C@H](C)[C@@H](O[C@H]2C[C@@](C)(OC)[C@@H](O)[C@H](C)O2)[C@H](C)[C@@H](O[C@@H]2O[C@H](C)C[C@H](N(C)C)[C@H]2O)[C@](C)(O)C[C@@H](C)C(=O)[C@H](C)[C@@H](O)[C@]1(C)O [Ery, erythromycin]

SMILES: CN(C)C(=O)CCSC(SCCC(=O)O)c1cccc(/C=C/c2ccc3ccc(Cl)cc3n2)c1 (stereo not shown) [MK571]
Cellular accumulation of [^14C] erythromycin in the presence of specific inhibitor, relative to control (rPCEC [2]; [14C] erythromycin 0.25 μCi/ml, 15 min, GF120918 2 μM, MK571 50 μM): 310%

SMILES: C[C@]12C=CC(=O)C=C1CC[C@@H]1[C@@H]2[C@@H](O)C[C@@]2(C)[C@H]1CC[C@]2(O)C(=O)CO [PL, prednisolone]
Inhibition of erythromycin efflux (rPCEC [2]; steroid 500 μM): ~80% | Cellular toxicity (percentage of viable cells vs control) (rPCEC [3]): not toxic

Papp A→B at 3.5 h, 10 μM (P-gp): 6.97 ± 0.21 ×10⁻⁶ cm/s | Papp B→A at 3.5 h, 10 μM (P-gp): 17.7 ± 0.47 ×10⁻⁶ cm/s | Papp A→B at 3.5 h, 10 μM (MRP2): 6.04 ± 0.15 ×10⁻⁶ cm/s | Papp B→A at 3.5 h, 10 μM (MRP2): 17.8 ± 0.22 ×10⁻⁶ cm/s
SMILES: C[C@]12C=CC(=O)C=C1CC[C@@H]1[C@@H]2C(=O)C[C@@]2(C)[C@H]1CC[C@]2(O)C(=O)CO [PS, prednisone]
Inhibition of erythromycin efflux (rPCEC [2]; steroid 500 μM): ~80% | Cellular toxicity (percentage of viable cells vs control) (rPCEC [3]): not toxic

SMILES: C[C@H]1C[C@@H]2[C@H]([C@@H](O)C[C@@]3(C)[C@H]2CC[C@]3(O)C(=O)CO)[C@@]2(C)C=CC(=O)C=C12 [MPL, 6α-methyl prednisolone]
Cellular accumulation of [^14C] erythromycin increased by, relative to control (rPCEC [2]; [14C] erythromycin 0.25 μCi/ml, 15 min, steroid 500 μM): 375% | Inhibition of erythromycin efflux (rPCEC [2]; steroid 500 μM): complete inhibition | Cellular toxicity (percentage of viable cells vs control) (rPCEC [3]): not toxic

Source: publication PMC4516224 (Pharmaceutical research, 2008)
